Test results: ChEMBL document CHEMBL3885881, “DrugMatrix”

Species on record: Rattus norvegicus
Assay: DrugMatrix - Regimen: Daily Repeat
Format: toxicity, organism-based, Sprague-Dawley
Parameters: regimen Daily Repeat, gender Male, age 6-8 weeks
Conditions: in vivo, iv, 20 mg/kg, dose level Low, vehicle 100 % SALINE; for ABSOLUTE BASOPHIL / ABSOLUTE EOSINOPHIL / ABSOLUTE LYMPHOCYTE / ABSOLUTE MONOCYTE / ABSOLUTE SEGMENTED NEUTROPHIL / BASOPHIL / EOSINOPHIL / ERYTHROCYTE COUNT / HEMATOCRIT / HEMOGLOBIN / LEUKOCYTE COUNT / LYMPHOCYTE / MEAN CORPUSCULAR HEMOGLOBIN / MONOCYTE / NEUTROPHIL / NUCLEATED RED BLOOD CELLS / PLATELET COUNT: tissue Blood; for ALANINE AMINOTRANSFERASE / ALBUMIN / ALKALINE PHOSPHATASE / ASPARTATE AMINOTRANSFERASE / BLOOD UREA NITROGEN / CARBON DIOXIDE / CHLORIDE / CHOLESTEROL / CREATINE PHOSPHOKINASE / CREATININE / GLUCOSE / LACTATE DEHYDROGENASE / LIPASE / PHOSPHORUS / POTASSIUM / SODIUM / TOTAL BILIRUBIN / TOTAL PROTEIN / URIC ACID: tissue Plasma

Question: Which “ABSOLUTE BASOPHIL” value (72 h, time 3 day) does the source give for CCC[C@@H]1C[C@@H](C(=O)N[C@@H]([C@H]2O[C@H](SC)[C@H](O)[C@@H](O)[C@H]2O)[C@H](C)Cl)N(C)C1 [CLINDAMYCIN] here?
Answer: 0 CELLS/uL

Question: What about the “ABSOLUTE EOSINOPHIL” value (72 h, time 3 day) of the same molecule?
Answer: 40 CELLS/uL

Question: And the “ABSOLUTE LYMPHOCYTE” value (72 h, time 3 day)?
Answer: 9607.67 CELLS/uL

Question: And the “ABSOLUTE MONOCYTE” value (72 h, time 3 day)?
Answer: 40 CELLS/uL

Question: What about the “ABSOLUTE SEGMENTED NEUTROPHIL” value (72 h, time 3 day) of the same molecule?
Answer: 712.33 CELLS/uL

Question: What about the BASOPHIL (72 h, time 3 day) of the same molecule?
Answer: 0%

Question: What about the EOSINOPHIL (72 h, time 3 day) of the same molecule?
Answer: 0.33%

Question: And the “ERYTHROCYTE COUNT” value (72 h, time 3 day)?
Answer: 5.49 x10E6/uL

Question: And the HEMATOCRIT (72 h, time 3 day)?
Answer: 34.93%

Question: And the HEMOGLOBIN (72 h, time 3 day)?
Answer: 13.7 G/DL

Question: What about the “LEUKOCYTE COUNT” value (72 h, time 3 day) of the same molecule?
Answer: 10.4 x10E3/uL

Question: What about the LYMPHOCYTE (72 h, time 3 day) of the same molecule?
Answer: 92.67%

Question: And the “MEAN CORPUSCULAR HEMOGLOBIN” value (72 h, time 3 day)?
Answer: 24.97 pg

Question: What about the MONOCYTE (72 h, time 3 day) of the same molecule?
Answer: 0.33%

Question: And the NEUTROPHIL (72 h, time 3 day)?
Answer: 6.67%

Question: What about the “NUCLEATED RED BLOOD CELLS” value (72 h, time 3 day) of the same molecule?
Answer: 0 /100WBC

Question: What about the “PLATELET COUNT” value (72 h, time 3 day) of the same molecule?
Answer: 1194.33 x10E3/uL

Question: And the “ALANINE AMINOTRANSFERASE” value (72 h, time 3 day)?
Answer: 42 u/L

Question: And the ALBUMIN (72 h, time 3 day)?
Answer: 4.4 G/DL

Question: What about the “ALKALINE PHOSPHATASE” value (72 h, time 3 day) of the same molecule?
Answer: 375.67 u/L

Question: What about the “ASPARTATE AMINOTRANSFERASE” value (72 h, time 3 day) of the same molecule?
Answer: 82.67 u/L

Question: What about the “BLOOD UREA NITROGEN” value (72 h, time 3 day) of the same molecule?
Answer: 19 mg/dL

Question: And the “CARBON DIOXIDE” value (72 h, time 3 day)?
Answer: 35.33 mmol/L

Question: And the CHLORIDE (72 h, time 3 day)?
Answer: 97 MEQ/L

Question: And the CHOLESTEROL (72 h, time 3 day)?
Answer: 81.33 mg/dL

Question: And the “CREATINE PHOSPHOKINASE” value (72 h, time 3 day)?
Answer: 250 u/L

Question: And the CREATININE (72 h, time 3 day)?
Answer: 0.19 mg/dL

Question: What about the GLUCOSE (72 h, time 3 day) of the same molecule?
Answer: 124.33 mg/dL

Question: What about the “LACTATE DEHYDROGENASE” value (72 h, time 3 day) of the same molecule?
Answer: 260.67 u/L

Question: And the LIPASE (72 h, time 3 day)?
Answer: 11 u/L

Question: What about the PHOSPHORUS (72 h, time 3 day) of the same molecule?
Answer: 9.63 mg/dL

Question: And the POTASSIUM (72 h, time 3 day)?
Answer: 6.58 MEQ/L

Question: What about the SODIUM (72 h, time 3 day) of the same molecule?
Answer: 143.4 MEQ/L

Question: What about the “TOTAL BILIRUBIN” value (72 h, time 3 day) of the same molecule?
Answer: 0.17 mg/dL

Question: And the “TOTAL PROTEIN” value (72 h, time 3 day)?
Answer: 6.4 G/DL

Question: What about the “URIC ACID” value (72 h, time 3 day) of the same molecule?
Answer: 0.87 mg/dL

Question: And the “ABSOLUTE BASOPHIL” value (120 h, time 5 day)?
Answer: 0 CELLS/uL

Question: And the “ABSOLUTE EOSINOPHIL” value (120 h, time 5 day)?
Answer: 97.33 CELLS/uL

Question: What about the “ABSOLUTE LYMPHOCYTE” value (120 h, time 5 day) of the same molecule?
Answer: 13386.67 CELLS/uL

Question: And the “ABSOLUTE MONOCYTE” value (120 h, time 5 day)?
Answer: 100.67 CELLS/uL

Question: What about the “ABSOLUTE SEGMENTED NEUTROPHIL” value (120 h, time 5 day) of the same molecule?
Answer: 1348.67 CELLS/uL

Question: And the BASOPHIL (120 h, time 5 day)?
Answer: 0%

Question: And the EOSINOPHIL (120 h, time 5 day)?
Answer: 0.67%

Question: And the “ERYTHROCYTE COUNT” value (120 h, time 5 day)?
Answer: 5.84 x10E6/uL

Question: What about the HEMATOCRIT (120 h, time 5 day) of the same molecule?
Answer: 35.8%

Question: And the HEMOGLOBIN (120 h, time 5 day)?
Answer: 14.27 G/DL

Question: And the “LEUKOCYTE COUNT” value (120 h, time 5 day)?
Answer: 14.93 x10E3/uL

Question: What about the LYMPHOCYTE (120 h, time 5 day) of the same molecule?
Answer: 89.67%

Question: And the “MEAN CORPUSCULAR HEMOGLOBIN” value (120 h, time 5 day)?
Answer: 24.47 pg

Question: What about the MONOCYTE (120 h, time 5 day) of the same molecule?
Answer: 0.67%

Question: And the NEUTROPHIL (120 h, time 5 day)?
Answer: 9%

Question: What about the “NUCLEATED RED BLOOD CELLS” value (120 h, time 5 day) of the same molecule?
Answer: 0 /100WBC

Question: What about the “PLATELET COUNT” value (120 h, time 5 day) of the same molecule?
Answer: 1266.67 x10E3/uL

Question: What about the “ALANINE AMINOTRANSFERASE” value (120 h, time 5 day) of the same molecule?
Answer: 57.67 u/L

Question: And the ALBUMIN (120 h, time 5 day)?
Answer: 4.33 G/DL

Question: What about the “ALKALINE PHOSPHATASE” value (120 h, time 5 day) of the same molecule?
Answer: 400.67 u/L

Question: What about the “ASPARTATE AMINOTRANSFERASE” value (120 h, time 5 day) of the same molecule?
Answer: 85 u/L

Question: And the “BLOOD UREA NITROGEN” value (120 h, time 5 day)?
Answer: 18.67 mg/dL

Question: And the “CARBON DIOXIDE” value (120 h, time 5 day)?
Answer: 35.33 mmol/L

Question: And the CHLORIDE (120 h, time 5 day)?
Answer: 100.33 MEQ/L

Question: What about the CHOLESTEROL (120 h, time 5 day) of the same molecule?
Answer: 70.67 mg/dL

Question: What about the “CREATINE PHOSPHOKINASE” value (120 h, time 5 day) of the same molecule?
Answer: 217 u/L

Question: And the CREATININE (120 h, time 5 day)?
Answer: 0.19 mg/dL

Question: What about the GLUCOSE (120 h, time 5 day) of the same molecule?
Answer: 148.33 mg/dL

Question: What about the “LACTATE DEHYDROGENASE” value (120 h, time 5 day) of the same molecule?
Answer: 152.67 u/L

Question: What about the LIPASE (120 h, time 5 day) of the same molecule?
Answer: 8.33 u/L

Question: What about the PHOSPHORUS (120 h, time 5 day) of the same molecule?
Answer: 12.6 mg/dL

Question: What about the POTASSIUM (120 h, time 5 day) of the same molecule?
Answer: 7.37 MEQ/L

Question: What about the SODIUM (120 h, time 5 day) of the same molecule?
Answer: 144.4 MEQ/L

Question: And the “TOTAL BILIRUBIN” value (120 h, time 5 day)?
Answer: 0.2 mg/dL

Question: And the “TOTAL PROTEIN” value (120 h, time 5 day)?
Answer: 6.43 G/DL

Question: What about the “URIC ACID” value (120 h, time 5 day) of the same molecule?
Answer: 1.67 mg/dL
